In publication PMC11345841, “Exploring 2-Sulfonylpyrimidine Warheads as Acrylamide Surrogates for Targeted Covalent Inhibition: A BTK Story” (Journal of Medicinal Chemistry, 2024):
Substitutions are numbered along the chain they refer to. Where two headings read alike, the source gives them in different places.

Experiments:
Test in all cases: KINOMEscan ScanTK
Type in all cases: binding
FLT3(ITD,F691L) = settings: for % difference (compound - Ib %Control) / %Control: @1000nM
HCK = molecular target: T1, HCK (Homo sapiens, UniProt P08631)
T1 construct: purchased Eurofins DiscoverX KINOMEscan (scanTK)

ROS1 = molecular target: T2, ROS1 (Homo sapiens, UniProt P08922); settings: for %Control difference versus reference Ib at 1 µM: read-out: % difference (compound - Ib %Control)
T2 construct: purchased Eurofins DiscoverX KINOMEscan (scanTK)

KIT = molecular target: T3, KIT (Homo sapiens, UniProt P10721)
T3 construct: purchased Eurofins DiscoverX KINOMEscan (scanTK)

RET(M918T) = molecular target: T4, RET(M918T) (Homo sapiens, UniProt P07949, M918T)
T4 construct: purchased Eurofins DiscoverX KINOMEscan (scanTK)

SYK = molecular target: T5, SYK (Homo sapiens, UniProt P43405)
T5 construct: purchased Eurofins DiscoverX KINOMEscan (scanTK)

FLT3(D835V) = molecular target: T6, FLT3(D835V) (Homo sapiens, UniProt P36888, D835V)
T6 construct: purchased Eurofins DiscoverX KINOMEscan (scanTK)
T6 sequence (P36888 27-993 D835V): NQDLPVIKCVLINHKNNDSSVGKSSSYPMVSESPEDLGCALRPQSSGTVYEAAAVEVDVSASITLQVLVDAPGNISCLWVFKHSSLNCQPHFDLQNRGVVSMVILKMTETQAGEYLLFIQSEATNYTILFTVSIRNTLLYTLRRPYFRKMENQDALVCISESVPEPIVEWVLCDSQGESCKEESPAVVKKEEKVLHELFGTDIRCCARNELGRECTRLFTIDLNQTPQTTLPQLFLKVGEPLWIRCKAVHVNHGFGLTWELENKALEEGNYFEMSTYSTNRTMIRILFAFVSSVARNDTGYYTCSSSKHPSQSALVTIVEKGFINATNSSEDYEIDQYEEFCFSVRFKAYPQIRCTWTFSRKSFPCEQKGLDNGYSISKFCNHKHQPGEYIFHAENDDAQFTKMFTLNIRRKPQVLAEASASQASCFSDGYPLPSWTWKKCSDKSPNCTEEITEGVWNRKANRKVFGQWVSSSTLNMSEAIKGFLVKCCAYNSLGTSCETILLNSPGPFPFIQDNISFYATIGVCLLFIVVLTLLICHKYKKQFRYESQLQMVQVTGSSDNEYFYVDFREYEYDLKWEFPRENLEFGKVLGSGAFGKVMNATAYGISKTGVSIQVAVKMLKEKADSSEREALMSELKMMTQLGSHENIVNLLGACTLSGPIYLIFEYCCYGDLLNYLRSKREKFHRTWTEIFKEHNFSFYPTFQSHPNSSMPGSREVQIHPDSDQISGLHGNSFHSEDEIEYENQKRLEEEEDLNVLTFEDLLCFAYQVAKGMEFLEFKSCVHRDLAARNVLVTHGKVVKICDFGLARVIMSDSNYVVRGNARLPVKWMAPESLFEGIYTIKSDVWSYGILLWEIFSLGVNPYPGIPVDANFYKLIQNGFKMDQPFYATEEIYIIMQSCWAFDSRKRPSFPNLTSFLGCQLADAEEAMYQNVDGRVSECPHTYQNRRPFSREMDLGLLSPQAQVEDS

[1] = molecular target: T7, ABL1(H396P)-nonphosphorylated (Homo sapiens, UniProt P00519, H396P)
T7 construct: purchased Eurofins DiscoverX KINOMEscan (scanTK)

RET(V804M) = molecular target: T8, RET(V804M) (Homo sapiens, UniProt P07949, V804M)
T8 construct: purchased Eurofins DiscoverX KINOMEscan (scanTK)

FLT3(D835Y) = molecular target: T9, FLT3(D835Y) (Homo sapiens, UniProt P36888, D835Y)
T9 construct: purchased Eurofins DiscoverX KINOMEscan (scanTK)
T9 sequence (P36888 27-993 D835Y): T6 sequence (P36888 27-993 D835V) with V809Y

T8 sequence (P07949 29-1114 V804M): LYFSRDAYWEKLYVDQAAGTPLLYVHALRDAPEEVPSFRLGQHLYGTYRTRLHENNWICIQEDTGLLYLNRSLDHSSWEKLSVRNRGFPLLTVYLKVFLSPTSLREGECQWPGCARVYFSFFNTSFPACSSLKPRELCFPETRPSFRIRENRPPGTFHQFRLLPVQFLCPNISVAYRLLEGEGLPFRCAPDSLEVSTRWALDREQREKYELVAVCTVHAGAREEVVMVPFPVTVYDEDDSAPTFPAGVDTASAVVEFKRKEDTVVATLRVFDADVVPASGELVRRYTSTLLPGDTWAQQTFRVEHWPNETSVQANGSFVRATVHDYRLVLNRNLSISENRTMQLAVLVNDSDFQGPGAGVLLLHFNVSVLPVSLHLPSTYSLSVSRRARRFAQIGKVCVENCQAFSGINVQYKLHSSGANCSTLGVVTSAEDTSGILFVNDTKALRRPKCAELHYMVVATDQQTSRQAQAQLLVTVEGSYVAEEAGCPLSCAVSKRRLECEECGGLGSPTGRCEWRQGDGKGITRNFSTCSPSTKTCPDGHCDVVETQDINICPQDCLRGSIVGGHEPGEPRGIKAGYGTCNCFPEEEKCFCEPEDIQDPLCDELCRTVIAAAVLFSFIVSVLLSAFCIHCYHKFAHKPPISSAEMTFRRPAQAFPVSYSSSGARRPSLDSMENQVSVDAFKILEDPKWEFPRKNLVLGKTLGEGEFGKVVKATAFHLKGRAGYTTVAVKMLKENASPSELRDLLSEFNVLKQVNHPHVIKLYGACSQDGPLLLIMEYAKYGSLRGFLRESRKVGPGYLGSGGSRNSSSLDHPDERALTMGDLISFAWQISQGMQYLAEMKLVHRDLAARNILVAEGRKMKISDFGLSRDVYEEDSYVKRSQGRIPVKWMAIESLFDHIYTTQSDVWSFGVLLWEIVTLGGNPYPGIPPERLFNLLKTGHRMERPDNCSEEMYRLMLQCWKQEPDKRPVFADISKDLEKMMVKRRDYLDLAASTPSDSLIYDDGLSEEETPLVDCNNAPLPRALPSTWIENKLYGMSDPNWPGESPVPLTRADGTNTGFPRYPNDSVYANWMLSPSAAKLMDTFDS
T2 sequence (P08922 28-2347): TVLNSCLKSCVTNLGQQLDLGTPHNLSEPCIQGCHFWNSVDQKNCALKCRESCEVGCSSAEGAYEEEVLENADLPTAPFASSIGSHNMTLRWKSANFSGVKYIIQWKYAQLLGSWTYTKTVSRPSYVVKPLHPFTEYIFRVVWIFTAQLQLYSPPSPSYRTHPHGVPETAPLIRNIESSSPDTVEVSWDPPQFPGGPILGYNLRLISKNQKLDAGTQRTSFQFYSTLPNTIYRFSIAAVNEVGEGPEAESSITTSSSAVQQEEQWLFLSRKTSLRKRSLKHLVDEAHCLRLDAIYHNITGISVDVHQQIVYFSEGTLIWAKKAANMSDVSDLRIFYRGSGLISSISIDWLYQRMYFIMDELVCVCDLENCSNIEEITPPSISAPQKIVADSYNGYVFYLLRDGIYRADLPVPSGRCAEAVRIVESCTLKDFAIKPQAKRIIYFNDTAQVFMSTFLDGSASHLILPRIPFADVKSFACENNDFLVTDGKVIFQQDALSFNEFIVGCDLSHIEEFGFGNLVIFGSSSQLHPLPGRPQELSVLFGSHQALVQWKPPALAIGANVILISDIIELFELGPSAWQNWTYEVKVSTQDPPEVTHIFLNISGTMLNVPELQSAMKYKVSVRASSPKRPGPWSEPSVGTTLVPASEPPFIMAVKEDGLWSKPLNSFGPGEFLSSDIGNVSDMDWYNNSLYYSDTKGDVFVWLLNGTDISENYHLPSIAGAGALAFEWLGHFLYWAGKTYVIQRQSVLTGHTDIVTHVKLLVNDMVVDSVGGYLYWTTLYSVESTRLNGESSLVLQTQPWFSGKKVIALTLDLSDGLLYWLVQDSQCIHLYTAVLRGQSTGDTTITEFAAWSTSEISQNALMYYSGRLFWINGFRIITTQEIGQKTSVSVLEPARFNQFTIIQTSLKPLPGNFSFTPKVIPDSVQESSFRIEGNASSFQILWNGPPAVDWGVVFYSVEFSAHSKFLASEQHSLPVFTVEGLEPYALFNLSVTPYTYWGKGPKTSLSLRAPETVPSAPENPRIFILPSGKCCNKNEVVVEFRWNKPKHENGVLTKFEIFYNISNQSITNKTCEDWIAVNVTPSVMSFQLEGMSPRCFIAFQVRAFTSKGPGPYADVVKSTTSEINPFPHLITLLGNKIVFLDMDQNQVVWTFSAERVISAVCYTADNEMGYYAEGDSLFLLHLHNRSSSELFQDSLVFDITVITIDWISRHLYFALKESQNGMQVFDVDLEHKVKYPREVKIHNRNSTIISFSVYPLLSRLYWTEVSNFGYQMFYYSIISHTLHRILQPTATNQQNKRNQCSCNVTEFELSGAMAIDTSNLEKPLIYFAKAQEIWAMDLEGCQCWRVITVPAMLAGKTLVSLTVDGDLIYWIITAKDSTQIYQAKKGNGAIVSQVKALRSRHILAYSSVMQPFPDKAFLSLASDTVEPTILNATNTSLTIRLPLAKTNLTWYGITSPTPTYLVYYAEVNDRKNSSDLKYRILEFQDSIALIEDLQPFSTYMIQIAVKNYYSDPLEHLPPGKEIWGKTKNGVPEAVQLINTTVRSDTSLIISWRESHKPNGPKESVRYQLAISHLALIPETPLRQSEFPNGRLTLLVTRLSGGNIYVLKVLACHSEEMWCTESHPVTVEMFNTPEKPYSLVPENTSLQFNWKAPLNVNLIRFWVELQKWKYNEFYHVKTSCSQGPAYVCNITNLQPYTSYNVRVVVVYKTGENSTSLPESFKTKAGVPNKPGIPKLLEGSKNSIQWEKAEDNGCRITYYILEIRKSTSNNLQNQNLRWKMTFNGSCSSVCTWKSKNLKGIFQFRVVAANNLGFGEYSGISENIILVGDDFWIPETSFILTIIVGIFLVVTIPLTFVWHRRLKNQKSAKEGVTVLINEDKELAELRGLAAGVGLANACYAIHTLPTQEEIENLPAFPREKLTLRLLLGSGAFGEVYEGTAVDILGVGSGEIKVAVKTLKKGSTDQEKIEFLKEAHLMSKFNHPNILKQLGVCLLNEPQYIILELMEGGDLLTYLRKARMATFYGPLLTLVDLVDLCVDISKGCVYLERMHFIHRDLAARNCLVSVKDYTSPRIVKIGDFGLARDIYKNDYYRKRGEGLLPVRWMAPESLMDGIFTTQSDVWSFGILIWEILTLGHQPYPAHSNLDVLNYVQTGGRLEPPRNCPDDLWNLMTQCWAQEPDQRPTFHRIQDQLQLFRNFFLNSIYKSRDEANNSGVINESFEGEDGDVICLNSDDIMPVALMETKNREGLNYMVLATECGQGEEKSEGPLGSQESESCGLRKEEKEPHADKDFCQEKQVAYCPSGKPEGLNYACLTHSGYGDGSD
T1 sequence (P08631 whole entry): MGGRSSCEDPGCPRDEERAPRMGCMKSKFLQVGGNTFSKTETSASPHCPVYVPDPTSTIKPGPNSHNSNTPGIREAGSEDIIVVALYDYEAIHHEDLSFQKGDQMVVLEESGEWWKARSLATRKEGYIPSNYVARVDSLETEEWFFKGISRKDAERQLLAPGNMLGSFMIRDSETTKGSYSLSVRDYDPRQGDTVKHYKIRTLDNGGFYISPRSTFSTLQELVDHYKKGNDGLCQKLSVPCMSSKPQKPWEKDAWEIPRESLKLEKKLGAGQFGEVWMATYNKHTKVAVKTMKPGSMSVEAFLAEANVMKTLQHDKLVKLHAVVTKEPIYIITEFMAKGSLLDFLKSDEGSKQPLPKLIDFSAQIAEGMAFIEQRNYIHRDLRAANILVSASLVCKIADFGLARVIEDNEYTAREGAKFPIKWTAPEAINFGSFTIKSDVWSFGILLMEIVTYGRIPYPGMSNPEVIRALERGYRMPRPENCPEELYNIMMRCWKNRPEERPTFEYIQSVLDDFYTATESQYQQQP
T4 sequence (P07949 29-1114 M918T): as the sequence (P07949 29-1114 V804M) above, with M776V, M890T counted along it
T3 sequence (P10721 26-976): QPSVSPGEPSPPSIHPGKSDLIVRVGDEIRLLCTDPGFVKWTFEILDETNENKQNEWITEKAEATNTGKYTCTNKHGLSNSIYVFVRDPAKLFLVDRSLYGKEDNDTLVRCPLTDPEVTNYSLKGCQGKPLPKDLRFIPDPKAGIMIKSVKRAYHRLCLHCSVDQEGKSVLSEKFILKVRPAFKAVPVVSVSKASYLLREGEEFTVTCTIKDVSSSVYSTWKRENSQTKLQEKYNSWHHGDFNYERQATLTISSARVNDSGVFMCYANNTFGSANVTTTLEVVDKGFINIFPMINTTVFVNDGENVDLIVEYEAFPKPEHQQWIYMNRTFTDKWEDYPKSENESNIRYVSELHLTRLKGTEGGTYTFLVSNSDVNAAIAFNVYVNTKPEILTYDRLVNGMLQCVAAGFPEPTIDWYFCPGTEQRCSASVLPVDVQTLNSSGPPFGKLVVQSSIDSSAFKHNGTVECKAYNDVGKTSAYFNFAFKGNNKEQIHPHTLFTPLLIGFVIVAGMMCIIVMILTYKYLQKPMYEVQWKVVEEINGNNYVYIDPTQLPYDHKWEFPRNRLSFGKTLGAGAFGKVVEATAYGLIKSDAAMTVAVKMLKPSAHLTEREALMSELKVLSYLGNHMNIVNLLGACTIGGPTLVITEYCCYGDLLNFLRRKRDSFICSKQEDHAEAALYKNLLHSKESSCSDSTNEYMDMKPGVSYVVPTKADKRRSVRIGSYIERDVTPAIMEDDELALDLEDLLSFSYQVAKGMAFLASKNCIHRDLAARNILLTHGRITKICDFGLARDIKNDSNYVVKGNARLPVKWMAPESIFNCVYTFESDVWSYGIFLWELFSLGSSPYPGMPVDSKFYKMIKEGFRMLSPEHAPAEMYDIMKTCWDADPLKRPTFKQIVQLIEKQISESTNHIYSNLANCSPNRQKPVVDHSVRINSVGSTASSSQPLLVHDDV

| Structure (SMILES) | %Control @1000nM (FLT3(ITD,F691L)) | % difference (compound - Ib %Control) (FLT3(ITD,F691L)) | %Control (FLT3(ITD,F691L)) | difference in %Control from compound Ib at 1 µM (HCK; @1000nM) | remaining binding at 1 µM (HCK; @1000nM, read-out: %Control) | remaining binding at 1 µM (HCK; read-out: %Control @1000nM) | %Control difference versus reference Ib at 1 µM (ROS1; @1000nM) | remaining binding at 1 µM (ROS1; @1000nM, read-out: %Control) | remaining binding at 1 µM (ROS1; read-out: %Control @1000nM) | difference in %Control versus compound Ib at 1 µM (KIT; @1000nM) | remaining binding at 1 µM (KIT; @1000nM, read-out: %Control) | remaining binding at 1 µM (KIT; read-out: %Control @1000nM) | remaining binding at 1 µM (RET(M918T); @1000nM, read-out: %Control) | remaining binding at 1 µM (RET(M918T); read-out: %Control @1000nM) | remaining binding at 1 µM (SYK; @1000nM, read-out: %Control) | remaining binding at 1 µM (SYK; read-out: %Control @1000nM) | remaining binding at 1 µM ([1]; @1000nM, read-out: %Control) | remaining binding at 1 µM ([1]; read-out: %Control @1000nM) | remaining binding at 1 µM (RET(V804M); @1000nM, read-out: %Control) | remaining binding at 1 µM (RET(V804M); read-out: %Control @1000nM) | other results |
| --- | --- | --- | --- | --- | --- | --- | --- | --- | --- | --- | --- | --- | --- | --- | --- | --- | --- | --- | --- | --- | --- |
| CCOC(=O)c1cnc(S(C)(=O)=O)nc1N1CCC[C@@H](n2nc(-c3ccc(Oc4ccccc4)cc3)c3c(N)ncnc32)C1 [Compound 8c, Ethyl (R)-4-(3-(4-Amino-3-(4-phenoxyphenyl)-1H-pyrazolo[3,4-d]pyrimidin-1-yl)piperidin-1-yl)-2-(methylsulfonyl)pyrimidine-5-carboxylate] | 100% | 0% | 100% | 22.8% | 28% | 28% | 3% | 100% | 100% | 52% | 93% | 93% | 87% | 87% | 100% | 100% | 55% | 55% | 100% | 100% | difference in %Control versus compound Ib at 1 µM (SYK; @1000nM): 9%; difference in %Control versus compound Ib at 1 µM (FLT3(D835V); @1000nM): 46.1%; remaining binding at 1 µM (FLT3(D835V); @1000nM, read-out: %Control): 56%; remaining binding at 1 µM (FLT3(D835V); read-out: %Control @1000nM): 56%; difference in %Control versus compound Ib at 1 µM ([1]; @1000nM): 41%; difference in %Control versus compound Ib at 1 µM (FLT3(D835Y); @1000nM): 50%; remaining binding at 1 µM (FLT3(D835Y); @1000nM, read-out: %Control): 99%; remaining binding at 1 µM (FLT3(D835Y); read-out: %Control @1000nM): 99% |
| Cc1cnc(S(C)(=O)=O)nc1N1CCCC(n2nc(-c3ccc(Oc4ccccc4)cc3)c3c(N)ncnc32)C1 (stereo not shown) [Compound 8a, 1-(1-(5-Methyl-2-(methylsulfonyl)pyrimidin-4-yl)piperidin-3-yl)-3-(4-phenoxyphenyl)-1H-pyrazolo[3,4-d]pyrimidin-4-amine] | 96% | -4% | 96% | 1.3% | 6.5% | 6.5% | -4% | 93% | 93% | 20% | 61% | 61% | 53% | 53% | 84% | 84% | 61% | 61% | 93% | 93% | difference in %Control versus compound Ib at 1 µM (SYK; @1000nM): -7%; difference in %Control versus compound Ib at 1 µM (FLT3(D835V); @1000nM): 20.1%; remaining binding at 1 µM (FLT3(D835V); @1000nM, read-out: %Control): 30%; remaining binding at 1 µM (FLT3(D835V); read-out: %Control @1000nM): 30%; difference in %Control versus compound Ib at 1 µM ([1]; @1000nM): 47%; difference in %Control versus compound Ib at 1 µM (FLT3(D835Y); @1000nM): -4%; remaining binding at 1 µM (FLT3(D835Y); @1000nM, read-out: %Control): 45%; remaining binding at 1 µM (FLT3(D835Y); read-out: %Control @1000nM): 45% |
| C=CC(=O)N1CCC[C@@H](n2nc(-c3ccc(Oc4ccccc4)cc3)c3c(N)ncnc32)C1 [Compound 1g, Ibrutinib, reference compound] | 100% |  | 100% |  | 5.2% | 5.2% |  | 97% | 97% |  | 41% | 41% | 14% | 14% | 91% | 91% | 14% | 14% | 100% | 100% |  |
| COC(=O)c1cnc(S(C)(=O)=O)nc1N1CCCC(n2nc(-c3ccc(Oc4ccccc4)cc3)c3c(N)ncnc32)C1 (stereo not shown) [Compound 8b, Methyl 4-(3-(4-Amino-3-(4-phenoxyphenyl)-1H-pyrazolo[3,4-d]pyrimidin-1-yl)piperidin-1-yl)-2-(methylsulfonyl)pyrimidine-5-carboxylate] | 96% | -4% | 96% | 10.8% | 16% | 16% | -11% | 86% | 86% | 30% | 71% | 71% | 49% | 49% | 78% | 78% | 69% | 69% | 90% | 90% | difference in %Control versus compound Ib at 1 µM (SYK; @1000nM): -13%; difference in %Control versus compound Ib at 1 µM (FLT3(D835V); @1000nM): 38.1%; remaining binding at 1 µM (FLT3(D835V); @1000nM, read-out: %Control): 48%; remaining binding at 1 µM (FLT3(D835V); read-out: %Control @1000nM): 48%; difference in %Control versus compound Ib at 1 µM ([1]; @1000nM): 55%; difference in %Control versus compound Ib at 1 µM (FLT3(D835Y); @1000nM): 18%; remaining binding at 1 µM (FLT3(D835Y); @1000nM, read-out: %Control): 67%; remaining binding at 1 µM (FLT3(D835Y); read-out: %Control @1000nM): 67% |
